Consider 18 compounds from US9145425B2, “Cephem compound having catechol group” (SHIONOGI & CO., LTD., priority 2010, dated 2015).

Common to all, as to assay type: cell-based
Experiment [1] relates to Acinetobacter baumannii SR24396. Nature of the experiment: Minimum Inhibitory Concentration (MIC), agar plate incubation, Japan Society for Chemotherapy standard method. As for the experimental part: (§1) The antimicrobial activity in vitro of the present compound (I) was determined.
(§2) Measurement of Minimum Inhibitory Concentration (MIC, μg/ml) was conducted according to the standard method of the Japan Society for Chemotherapy and the amount of bacteria for inoculation was 1000 cfu/spot, and sensitive disc medium was used as the test medium, and conducted using agar plate incubation.
(§3) In the tables, the unit of the values of inhibitory activity is μg/ml.

For experiment [2], the system named is Klebsiella pneumoniae ATCC 700603. The description is as above. On the procedure:
as §1, §2, §3

The test system of experiment [3] is Pseudomonas aeruginosa SR24. Described as above. As to conditions: Pseudomonas aeruginosa SR24, no enzyme, ceftazidime sensitive strain, 1000 cfu/spot, sensitive disc medium; for MIC: read-out: Minimum Inhibitory Concentration (MIC). As for the experimental part:
as §1, §2, §3

The subject of experiment [4] is Pseudomonas aeruginosa SR27060. The description is as above. On the procedure:
as §1, §2, §3

Experiment [5] has as its system Stenotrophomonas maltophilia SR21970. Nature of the experiment: Minimum Inhibitory Concentration (MIC), agar plate incubation, CLSI method. As for the experimental part:
as §1
Measurement of Minimum Inhibitory Concentration (MIC, μg/ml) was conducted according to the CLSI (Clinical and Laboratory Standards Institute) and the amount of bacteria for inoculation was 10000 cfu/spot, and Mueller-Hinton agar medium was used as the test medium, and conducted using agar plate incubation.
as §3

[6] abbreviates: Acinetobacter baumannii SR24396, no enzyme, 1000 cfu/spot, sensitive disc medium, read-out: Minimum Inhibitory Concentration (MIC).
[7] abbreviates: ATCC700603, Klebsiella pneumoniae ATCC 700603, SHV-18, ESBL producer strain, 1000 cfu/spot, sensitive disc medium, read-out: Minimum Inhibitory Concentration (MIC).
Where [8] appears, read: Pseudomonas aeruginosa SR27060, IMP-1, MBL producer strain (carbapenem resistant strain), 1000 cfu/spot, sensitive disc medium, read-out: Minimum Inhibitory Concentration (MIC).
The mark [9] stands for this setting: Stenotrophomonas maltophilia SR21970, L-1, MBL producer strain (carbapenem resistant strain), 10000 cfu/spot, Mueller-Hinton agar medium, read-out: Minimum Inhibitory Concentration (MIC).
The mark [10] stands for this setting: Acinetobacter baumannii SR24396, no enzyme, 1000 cfu/spot, sensitive disc medium.
The mark [11] stands for this setting: Klebsiella pneumoniae ATCC 700603, SHV-18, ESBL producer strain, 1000 cfu/spot, sensitive disc medium.
Where [12] appears, read: Pseudomonas aeruginosa SR27060, IMP-1, MBL producer strain (carbapenem resistant strain), 1000 cfu/spot, sensitive disc medium.
Where [13] appears, read: Stenotrophomonas maltophilia SR21970, L-1, MBL producer strain (carbapenem resistant strain), 10000 cfu/spot, Mueller-Hinton agar medium.
Setting [14] is: Acinetobacter baumannii, SR24396, read-out: Minimum Inhibitory Concentration (MIC).
Setting [15] is: Klebsiella pneumoniae, ATCC700603, read-out: Minimum Inhibitory Concentration (MIC).
The mark [16] stands for this setting: Pseudomonas aeruginosa, SR27060, read-out: Minimum Inhibitory Concentration (MIC).
[17] abbreviates: Stenotrophomonas maltophilia, SR21970, read-out: Minimum Inhibitory Concentration (MIC).

Structures are written as SMILES. Values after ≈ are worked out from the molar mass of the structure shown. Read-outs that look alike come from different tables or passages of the source.

For `CC(C)(O/N=C(\C(=O)N[C@@H]1C(=O)N2C(C(=O)[O-])=C(C[N+]3(Cc4nnc(-c5ccc(O)c(O)c5Cl)o4)CCCC3)CS[C@H]12)c1csc(N)n1)C(=O)[O-].[Na+]` [Compound I-1], the MIC in experiment [1] (setting [6]) came to 0.25 µg/mL; in experiment [2] (setting [7]) it was 0.25 µg/mL; in experiment [3], 0.063 µg/mL; in experiment [4] (setting [8]), 0.25 µg/mL; in experiment [5] (setting [9]) it was 1 µg/mL.
As for `CC(C)(O/N=C(\C(=O)N[C@@H]1C(=O)N2C(C(=O)[O-])=C(C[N+]34CCC(CC3)N(C(=O)c3ccc(O)c(O)c3Cl)CC4)CS[C@H]12)c1csc(N)n1)C(=O)[O-].[Na+]` [Compound I-5], the MIC in experiment [1] (setting [6]) turned out to be 0.125 µg/mL; in experiment [2] (setting [7]), 0.25 µg/mL; in experiment [3], 0.063 µg/mL; in experiment [4] (setting [8]) it was 0.5 µg/mL; in experiment [5] (setting [9]) it was 0.5 µg/mL.
As for `CC(C)(O/N=C(\C(=O)N[C@@H]1C(=O)N2C(C(=O)[O-])=C(C[N@+]34CC[C@H](C3)N(C(=O)c3ccc(O)c(O)c3Cl)CC4)CS[C@H]12)c1csc(N)n1)C(=O)[O-].[Na+]` [Compound I-6], the MIC came out at 0.125 µg/mL in experiment [1] (setting [6]); 1 µg/mL in experiment [2] (setting [7]); 0.063 µg/mL in experiment [3]; 0.5 µg/mL in experiment [4] (setting [8]); 1 µg/mL in experiment [5] (setting [9]).
Take `Nc1nc(/C(=N/O[C@@H](CC(=O)[O-])C(=O)[O-])C(=O)N[C@@H]2C(=O)N3C(C(=O)[O-])=C(C[N+]45CCC(CC4)N(C(=O)c4ccc(O)c(O)c4Cl)CC5)CS[C@H]23)cs1.[Na+].[Na+]` [Compound I-9]: the MIC in experiment [1] (setting [6]) is 0.125 µg/mL; in experiment [2] (setting [7]), 0.125 µg/mL; in experiment [3], 0.063 µg/mL; in experiment [4] (setting [8]), 0.25 µg/mL; in experiment [5] (setting [9]), 0.5 µg/mL.
As for `Nc1nc(C(=NOC(CC(=O)[O-])C(=O)[O-])C(=O)NC2C(=O)N3C(C(=O)[O-])=C(C[N+]45CCCC4CN(C(=O)c4ccc(O)c(O)c4Cl)CC5)CSC23)cs1.[Na+].[Na+]` (centres unmarked) [Compound I-14], the “Minimum Inhibitory Concentration (MIC)” value was determined as 0.125 µg/mL in experiment [1] (setting [10]); 0.5 µg/mL in experiment [2] (setting [11]); 0.125 µg/mL in experiment [3]; 0.25 µg/mL in experiment [4] (setting [12]); 1 µg/mL in experiment [5] (setting [13]).
On to `CC(C)(ON=C(C(=O)NC1C(=O)N2C(C(=O)[O-])=C(C[N+]34CCCC3CN(C(=O)c3ccc(O)c(O)c3Cl)CC4)CSC12)c1csc(N)n1)C(=O)[O-].[Na+]` (centres unmarked) [Compound I-15], for which the “Minimum Inhibitory Concentration (MIC)” value was 0.25 µg/mL in experiment [1] (setting [10]); 0.25 µg/mL in experiment [2] (setting [11]); 0.063 µg/mL in experiment [3]; 0.5 µg/mL in experiment [4] (setting [12]); 1 µg/mL in experiment [5] (setting [13]).
For `CC(ON=C(C(=O)NC1C(=O)N2C(C(=O)[O-])=C(C[N+]34CCCC3CN(C(=O)c3ccc(O)c(O)c3Cl)CC4)CSC12)c1csc(N)n1)C(=O)[O-].[Na+]` (centres unmarked) [Compound I-18], the “Minimum Inhibitory Concentration (MIC)” value is 0.125 µg/mL in experiment [1] (setting [10]); 0.5 µg/mL in experiment [2] (setting [11]); 0.063 µg/mL in experiment [3]; 1 µg/mL in experiment [4] (setting [12]); 2 µg/mL in experiment [5] (setting [13]).
Consider `CC(C)(O/N=C(\C(=O)N[C@@H]1C(=O)N2C(C(=O)[O-])=C(C[N+]34CCC(CC3)[C@H](NC(=O)c3ccc(O)c(O)c3Cl)C4)CS[C@H]12)c1csc(N)n1)C(=O)O` [Compound I-19], for which the MIC amounted to 0.125 µg/mL (≈ 0.164 µM) in experiment [1] (setting [6]); 0.5 µg/mL (≈ 0.654 µM) in experiment [2] (setting [7]); 0.125 µg/mL (≈ 0.164 µM) in experiment [3]; 0.125 µg/mL (≈ 0.164 µM) in experiment [4] (setting [8]); 0.5 µg/mL (≈ 0.654 µM) in experiment [5] (setting [9]).
On to `CC(C)(O/N=C(\C(=O)N[C@@H]1C(=O)N2C(C(=O)[O-])=C(C[N+](C)(C)C3CCN(C(=O)c4ccc(O)c(O)c4Cl)CC3)CS[C@H]12)c1csc(N)n1)C(=O)[O-].[Na+]` [Compound I-21], for which the “Minimum Inhibitory Concentration (MIC)” value in experiment [1] (setting [10]) worked out at 0.125 µg/mL; in experiment [2] (setting [11]) it was 0.5 µg/mL; in experiment [3], 0.125 µg/mL; in experiment [4] (setting [12]) it was 1 µg/mL; in experiment [5] (setting [13]), 1 µg/mL.
Regarding `CC(ON=C(C(=O)NC1C(=O)N2C(C(=O)[O-])=C(C[N+]34CCC(CC3)N(C(=O)c3ccc(O)c(O)c3Cl)CC4)CSC12)c1csc(N)n1)C(=O)[O-].[Na+]` (centres unmarked) [Compound I-23], the “Minimum Inhibitory Concentration (MIC)” value in experiment [1] (setting [10]) is 0.125 µg/mL; in experiment [2] (setting [11]), 0.5 µg/mL; in experiment [3] it was 0.063 µg/mL; in experiment [4] (setting [12]), 0.5 µg/mL; in experiment [5] (setting [13]), 1 µg/mL.
As for `CC(C)(ON=C(C(=O)NC1C(=O)N2C(C(=O)[O-])=C(C[N+]34CCCC3CN(C(=O)c3ccc(O)c(O)c3Cl)CC4)CSC12)c1csc(N)n1)C(=O)[O-].[Na+]` (centres unmarked) [Compound I-31], the “Minimum Inhibitory Concentration (MIC)” value in experiment [1] (setting [10]) came out at 0.25 µg/mL; in experiment [2] (setting [11]) it was 1 µg/mL; in experiment [3], 0.063 µg/mL; in experiment [4] (setting [12]), 0.5 µg/mL; in experiment [5] (setting [13]), 1 µg/mL.
For the compound `CC(C)(O/N=C(\C(=O)N[C@@H]1C(=O)N2C(C(=O)[O-])=C(C[N+]34CCC(CC3)N(C(=O)c3ccc(O)c(O)c3Cl)CC4)CS[C@H]12)c1nsc(N)n1)C(=O)[O-].[Na+]` [Compound I-34], the “Minimum Inhibitory Concentration (MIC)” value in experiment [1] (setting [10]) worked out at 0.125 µg/mL; in experiment [2] (setting [11]) it was 0.5 µg/mL; in experiment [3], 0.063 µg/mL; in experiment [4] (setting [12]) it was 0.5 µg/mL; in experiment [5] (setting [13]) it was 0.5 µg/mL.
Consider `CC(ON=C(C(=O)NC1C(=O)N2C(C(=O)[O-])=C(C[N+]34CCC(CNC(=O)c5ccc(O)c(O)c5Cl)(CC3)CC4)CSC12)c1csc(N)n1)C(=O)[O-].[Na+]` (centres unmarked) [Compound I-35], for which the “Minimum Inhibitory Concentration (MIC)” value was found to be 0.5 µg/mL in experiment [1] (setting [10]); 1 µg/mL in experiment [2] (setting [11]); 0.063 µg/mL in experiment [3]; 0.25 µg/mL in experiment [4] (setting [12]); 1 µg/mL in experiment [5] (setting [13]).
Take `CC(ON=C(C(=O)NC1C(=O)N2C(C(=O)[O-])=C(C[N+]3(CCNC(=O)c4ccc(O)c(O)c4Cl)CCCC3)CSC12)c1csc(N)n1)C(=O)[O-].[Na+]` (centres unmarked) [Compound I-36]: the “Minimum Inhibitory Concentration (MIC)” value was determined as 0.5 µg/mL in experiment [1] (setting [10]); 0.5 µg/mL in experiment [2] (setting [11]); 0.125 µg/mL in experiment [3]; 0.25 µg/mL in experiment [4] (setting [12]); 1 µg/mL in experiment [5] (setting [13]).
As to `CC(C)(O/N=C(\C(=O)N[C@@H]1C(=O)N2C(C(=O)O)=C(C[N+]3(C)[C@@H]4CC[C@H]3C[C@@H](NC(=O)c3cc(O)c(O)cc3Cl)C4)CS[C@H]12)c1csc(N)n1)C(=O)[O-]` (some centres unmarked) [II-55], the MIC in experiment [1] (setting [14]) is 0.25 µg/mL (≈ 0.321 µM); in experiment [2] (setting [15]), 0.25 µg/mL (≈ 0.321 µM); in experiment [4] (setting [16]) it was 0.5 µg/mL (≈ 0.642 µM); in experiment [5] (setting [17]) it was 0.5 µg/mL (≈ 0.642 µM).
Turning to `C[N+]1(CC2=C(C(=O)[O-])N3C(=O)C(NC(=O)C(=NOC(CC(=O)O)C(=O)[O-])c4csc(N)n4)C3SC2)C2CCC1CC(NC(=O)c1cc(O)c(O)cc1Cl)C2.[Na+]` (centres unmarked) [II-56], the “Minimum Inhibitory Concentration (MIC)” value in experiment [1] (setting [10]) came to 0.25 µg/mL; in experiment [2] (setting [11]) it was 0.25 µg/mL; in experiment [4] (setting [12]), 0.5 µg/mL; in experiment [5] (setting [13]), 0.5 µg/mL.
On to `CC(C)(O/N=C(\C(=O)N[C@@H]1C(=O)N2C(C(=O)O)=C(C[N@+]3(C)[C@@H]4CC[C@H]3C[C@@H](NC(=O)c3cc(F)c(O)c(O)c3F)C4)CS[C@H]12)c1csc(N)n1)C(=O)[O-]` [III-9], for which the MIC is 0.125 µg/mL (≈ 0.16 µM) in experiment [1] (setting [14]), 0.125 µg/mL (≈ 0.16 µM) in experiment [2] (setting [15]), 0.25 µg/mL (≈ 0.321 µM) in experiment [4] (setting [16]) and 0.5 µg/mL (≈ 0.641 µM) in experiment [5] (setting [17]).
Take `C[N+]1(CC2=C(C(=O)[O-])N3C(=O)C(NC(=O)C(=NOC(CC(=O)O)C(=O)[O-])c4csc(N)n4)C3SC2)C2CCC1CC(NC(=O)c1cc(F)c(O)c(O)c1F)C2.[Na+]` (centres unmarked) [III-10]: the “Minimum Inhibitory Concentration (MIC)” value worked out at 0.125 µg/mL in experiment [1] (setting [10]), 0.125 µg/mL in experiment [2] (setting [11]), 0.25 µg/mL in experiment [4] (setting [12]) and 0.5 µg/mL in experiment [5] (setting [13]).
